# Reference: article PMC9414676, “Experimental Studies Indicate That ST-2223, the Antagonist of Histamine H3 and Dopamine D2/D3 Receptors, Restores Social Deficits and Neurotransmission Dysregulation in Mouse Model of Autism” (Pharmaceuticals, 2022)
# Entries after “also recorded” stand apart in the source; their conditions may differ.
# What was measured:
# B6 control mice = test system: B6 control mice; set-up: method as in PMID 33669336; conditions: cited from earlier work
# [1] = test system: acetylcholine levels in BTBR mice brain; test: Acetylcholine levels by LC-MS/MS in brain regions; format: in vivo; set-up: key to Acetylcholine level: ↔: No significant alterations; ↑: significant increase; ↑↑: additional significant increase vs. ST-2223-treated mice; ↓: significant decrease; conditions: for Acetylcholine level: ST-2223 5 mg/kg i.p. chronic, vs VEH-treated BTBR mice
# Procedure: (§1) All the mice were randomly divided into nine groups of 5–7 mice each. The mice were injected intraperitonially once daily for 21 days with different doses of ST2223 (2.5, 5, and 10 mg/kg, i.p.), ARP 1 mg/kg or vehicle (1% DMSO in 0.9% normal saline). Group I, B6 mice were injected with vehicle served as control. Group II, BTBR mice were treated with vehicle. Groups III–V, BTBR mice received i.p. injections of different doses of ST2223 (2.5, 5, and 10 mg/kg, i.p.), respectively. Group VI, BTBR mice were injected with ARP (1 mg/kg, i.p.). For abrogation studies, Group VII, BTBR mice were treated with ST2223 (5 mg/kg, i.p.) along with RAM (10 mg/kg, i.p.). Group VIII, B6 mice were co-injected with vehicle and RAM (10 mg/kg, i.p). All treatments and vehicle (VEH) were administered 30–45 min before each behavioral test. The doses of these drugs were selected based on previous reports. Behavioral testing was performed between 9:00 am and 3:00 pm in an order randomized by group and in the following sequence: social approach test (SAT) and open field locomotor test (OFL). The chronic treatment started one week before the behavioral test and was continued for a total of 21 days as described above (Figure 7). Following behavioral tests, i.e., on day 21 of systemic treatment, five of the animals were sacrificed. The animals were deeply anesthetized with pentobarbital (40 mg/kg, i.p., body weight). To wash out the blood, cardiac perfusion was carried out using 0.01 M phosphate-buffered saline (PBS) at pH 7.4. The brains were quickly removed and placed on an ice plate, where the cerebellum, hippocampus, prefrontal cortex, and striatum were excised from the brain and snap-frozen in liquid nitrogen for later LC-MS/MS analysis.
# (§2) Perfusion was done on anesthetized animals using 1X PBS as described previously. Different regions of the brain were snap frozen. Frozen tissues were then weighed and homogenized in a 10-fold volume of acetonitrile. For 50mg of tissue, 500 µL of acetonitrile and Internal standard mix were added and homogenized. Homogenates were centrifuged at 15,000 rcf for 15 min at 4 °C. Tissue levels of dopamine, acetylcholine, histamine, and their metabolites were assessed using LC-MS/MS. LC-MS/MS analysis was conducted utilizing Waters BEH C18 COLUMN (2.1 × 100 mm, 1.7 µm) using Waters Acquity UPLC Binary Solvent Manager and FTN Sample Manager. The system was run in gradient mode with mobile phase A consisting of LC-MS GRADE WATER + 0.1% FORMIC ACID and mobile phase B consisting of 100% ACETONITRILE. Mobile phase was duly filtered through 0.2 µm filter and degassed ultrasonically for 15 min prior to use. Separations were performed at room temperature with 0.3 mL/min flow rate gradient starting with 90% of A for up to 0.5 min. Then, % of A was decreased gradually until it reached 20% at 2.5 min after which at 3 min %A was brought back to the initial condition and left for equilibration for 2 more minutes before the next injection (total 5 min run time). The injection volume was kept at 1 µL. Mass spectrometric detection was performed in multiple reaction monitoring (MRM) mode with positive electrospray ionization (ESI+) on Xevo TQS mass spectrometer (Waters, Milford, MA) equipped with an electrospray ionization (ESI) source and triple quadrupole mass analyzer. MRM transitions and instrument parameters were set by tuning the instrument by infusing each analyte. MRM transitions taken for quantification were 146.2 > 87.1 for Acetylcholine, 112.2 > 95.2 for Histamine, 154.1 > 137.2 for Dopamine, 150.2 > 91.3 for Acetylcholine D4, and […] > 99.3 for Histamine D4. Capillary Voltage, Source Offset, Source Temperature, De solvation Temperature, Cone Gas Flow, De solvation Gas Flow, Collision Gas Flow, Nebulizer Gas Flow were set as 3.0 (kV), 60.0 (V), 150 (°C), 550 (°C), 150 (L/Hr), 1000 (L/Hr), 0.13 (mL/min), and 7 (Bar), correspondingly. […]
# [2] = test system: histamine levels in BTBR mice brain; test: Histamine levels by LC-MS/MS in brain regions; format: in vivo; set-up: key to Histamine level: ↔: No significant alterations; ↑: significant increase; ↑↑: additional significant increase vs. ST-2223-treated mice; ↓: significant decrease; conditions: ST-2223 5 mg/kg i.p. chronic, vs VEH-treated BTBR mice
# Procedure: as §1, §2
# EeAChE = EeAChE (Electrophorus electricus, UniProt O42275); test: Acetylcholine esterase inhibition (preliminary data); format: biochemical, electric eel
# Chain of EeAChE (O42275 24-633): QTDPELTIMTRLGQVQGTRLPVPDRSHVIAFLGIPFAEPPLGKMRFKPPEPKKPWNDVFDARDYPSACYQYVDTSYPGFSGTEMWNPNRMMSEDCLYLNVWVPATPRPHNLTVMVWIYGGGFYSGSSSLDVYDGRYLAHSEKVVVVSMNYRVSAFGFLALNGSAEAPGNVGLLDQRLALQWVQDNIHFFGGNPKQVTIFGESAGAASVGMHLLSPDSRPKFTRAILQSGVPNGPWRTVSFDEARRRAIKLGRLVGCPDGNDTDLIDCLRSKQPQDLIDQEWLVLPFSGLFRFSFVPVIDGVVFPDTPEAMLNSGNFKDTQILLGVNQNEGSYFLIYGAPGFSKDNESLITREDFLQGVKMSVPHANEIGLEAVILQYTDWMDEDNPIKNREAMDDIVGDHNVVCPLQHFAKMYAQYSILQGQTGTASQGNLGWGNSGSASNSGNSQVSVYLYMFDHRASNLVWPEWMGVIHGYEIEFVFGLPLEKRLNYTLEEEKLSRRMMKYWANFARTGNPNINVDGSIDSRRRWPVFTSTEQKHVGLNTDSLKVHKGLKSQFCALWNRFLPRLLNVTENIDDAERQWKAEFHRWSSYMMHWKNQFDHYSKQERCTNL
# [3] = test system: dopamine levels in BTBR mice brain; test: Dopamine levels by LC-MS/MS in brain regions; format: in vivo; set-up: key to Dopamine level: ↔: No significant alterations; ↑: significant increase; ↑↑: additional significant increase vs. ST-2223-treated mice; ↓: significant decrease; conditions: for Dopamine level: ST-2223 5 mg/kg i.p. chronic, vs VEH-treated BTBR mice
# Procedure: as §1, §2
# hD3R = target: T1, hD3R (Homo sapiens, UniProt P35462); test: [3H]spiperone displacement assay, CHO cells expressing hD3Rs; format: binding; conditions: ratio of Ki values
# T1 construct: expressed in transfected cells; host or cells: CHO cells (from the earlier reading's assay name)
# T1 sequence (P35462 whole entry): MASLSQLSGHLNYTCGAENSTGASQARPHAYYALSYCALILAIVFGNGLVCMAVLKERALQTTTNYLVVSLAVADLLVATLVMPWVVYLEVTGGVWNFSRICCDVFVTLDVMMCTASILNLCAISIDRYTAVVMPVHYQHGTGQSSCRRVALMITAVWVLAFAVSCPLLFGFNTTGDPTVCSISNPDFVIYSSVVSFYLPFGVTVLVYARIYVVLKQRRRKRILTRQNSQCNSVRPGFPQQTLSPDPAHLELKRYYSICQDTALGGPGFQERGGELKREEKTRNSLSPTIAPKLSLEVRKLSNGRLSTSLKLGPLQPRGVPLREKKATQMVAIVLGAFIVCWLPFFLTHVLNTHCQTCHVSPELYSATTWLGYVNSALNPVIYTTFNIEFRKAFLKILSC
smiles,measurement,setting,value
"COc1ccccc1N1CCN(CCCCNC(=O)c2ccc3cc(OCCCN4CCCCC4)ccc3c2)CC1 [ST-2223, N-(4-(4-(2-methoxyphenyl)piperazin-1-yl)butyl)-6-(3-(piperidin-1-yl)propoxy)-2-naphthamide]",behavioral alterations in B6 control mice,B6 control mice,no behavioral alterations
same,Acetylcholine level,[1]; Hippocampus,↑ ^b
same,Acetylcholine level,[1]; Prefrontal cortex,↑ ^b
same,Acetylcholine level,[1]; Striatum,↑ ^b
same,acetylcholine levels,"[1]; prefrontal cortex, striatum and hippocampus, ST-2223 5 mg/kg chronic, p < 0.05",significant increase of acetylcholine levels
same,Histamine level,[2]; Cerebellum,↑ ^b
same,Histamine level,[2]; Hippocampus,↔
same,Histamine level,[2]; Prefrontal cortex,↔
same,levels of histamine in brain regions,[2]; 5 mg/kg,significantly increased the levels of histamine in cerebellum and striatum; also recorded: without significant enhancement of brain histamine in hippocampal tissues
same,Histamine level,[2]; Striatum,↑ ^b
same,"inhibition of acetylcholine esterase enzyme (eeAChE), in words",EeAChE,neglectful inhibition
same,Dopamine level,[3]; Cerebellum,↓ ^b
same,Dopamine level,[3]; Hippocampus,↔
same,Dopamine level,[3]; Prefrontal cortex,↑ ^b
same,Dopamine level,[3]; Striatum,↑ ^b
same,dopamine levels,"[3]; prefrontal cortex and striatum, ST-2223 5 mg/kg chronic, p < 0.05",significantly increased the dopamine levels in both regions
same,ratio of hD2Rs/hD3Rs,hD3R,10
